# Results from ChEMBL document CHEMBL1128044, “Dichotomin A, a new cyclic hexapeptide from Stellaria dichotoma L. var. lanceolata Bge” (Bioorg Med Chem Lett, 1995).
# Residues, ends and D or L forms follow the SMILES beside them.
# Tested on: P388
# Experiment: Tested for inhibitory activity against p-388 lymphocytic leukemia cells
# Assay type: functional, cell-based
# Conditions: Mus musculus
compound,measurement,value
"CC(C)C[C@@H]1NC(=O)[C@H](Cc2ccccc2)NC(=O)[C@H]([C@@H](C)O)NC(=O)CNC(=O)[C@H](C(C)C)NC(=O)[C@H](Cc2ccc(O)cc2)NC1=O (HELM PEPTIDE1{F.L.Y.V.G.T}$PEPTIDE1,PEPTIDE1,1:R1-6:R2$$$V2.0)",IC50,2.5 µg/mL
